# Results from ChEMBL document CHEMBL5537145, “Design, synthesis and evaluation of novel UDCA-aminopyrimidine hybrids as ATX inhibitors for the treatment of hepatic and pulmonary fibrosis” (Eur J Med Chem, 2024).
# pIC50: −log10 of the molar value. Activity calls are given as the source filed them. No cut-off for these calls is given here.
# Key:
# Autotaxin [1] = target: T1, Autotaxin (Homo sapiens, UniProt Q13822); test: Inhibition of human ATX in using LPC as substrate by fluorescence based microplate reader assay
# CCC-HPF-1 [2] = test: Effect on total Smad2 level in TGF-beta1 stimulated human CCC-HPF-1 cells at 5 to 20 uM incubated for 48 hrs by Western blotting analysis; format: functional, cell-based; settings: dose 5-20 µM
# LX-2 [3] = test: Anti-migratory activity against TGF-beta1 stimulated human LX2 cells at 10 uM incubated for 24 hrs by light microscopic analysis; format: functional, cell-based
# LX-2 [4] = test: Effect on total Smad3 level in TGF-beta1 stimulated human LX2 cells at 5 to 20 uM incubated for 48 hrs by Western blotting analysis; format: functional, cell-based; settings: dose 5-20 µM
# CCC-HPF-1 [5] = test: Anti-pulmonary fibrosis activity against TGF-beta1 stimulated human CCC-HPF-1 cells assessed as inhibition of Smad2/3 nuclear translocation at 10 uM incubated for 48 hrs by DAPI staining based immunofluorescence analysis; format: functional, cell-based
# CCC-HPF-1 [6] = test: Anti-pulmonary fibrosis activity against TGF-beta1 stimulated human CCC-HPF-1 cells assessed as reduction in alpha-SMA mRNA expression level at 5 to 20 uM incubated for 48 hrs by quantitative real-time PCR analysis; format: functional, cell-based; settings: dose 5-20 µM
# Autotaxin [7] = target: T1, Autotaxin; test: Potency index, ratio of GLPG-1690 IC50 to test compound IC50 for inhibition of human ATX in using LPC as substrate by fluorescence based microplate reader assay
# CCC-HPF-1 [8] = test: Anti-pulmonary fibrosis activity against TGF-beta1 stimulated human CCC-HPF-1 cells assessed as reduction in alpha-SMA protein expression level at 5 to 20 uM incubated for 48 hrs by Western blotting analysis; format: functional, cell-based; settings: dose 5-20 µM
# LX-2 [9] = test: Anti-hepatic fibrosis activity against TGF-beta1 stimulated human LX2 cells assessed as reduction in COL1A1 protein expression level at 5 to 20 uM incubated for 48 hrs by Western blotting analysis; format: functional, cell-based; settings: dose 5-20 µM
# CCC-HPF-1 [10] = test: Cytotoxicity against human CCC-HPF-1 cells assessed as reduction in cell viability at 2.5 to 80 uM incubated for 48 hrs by MTT assay; format: toxicity, cell-based; settings: ccc-hpf-1, 48 h, dose 2.5-80 µM
# LX-2 [11] = test: Anti-hepatic fibrosis activity against TGF-beta1 stimulated human LX2 cells assessed as reduction in FN mRNA expression level at 5 to 20 uM incubated for 48 hrs by quantitative real-time PCR analysis; format: functional, cell-based; settings: dose 5-20 µM
# CCC-HPF-1 [12] = test: Anti-pulmonary fibrosis activity against TGF-beta1 stimulated human CCC-HPF-1 cells assessed as reduction in Smad3 phosphorylation incubated for 48 hrs by Western blotting analysis; format: functional, cell-based; settings: dose 5-20 µM
# CCC-HPF-1 [13] = test: Effect on total Smad3 level in TGF-beta1 stimulated human CCC-HPF-1 cells at 5 to 20 uM incubated for 48 hrs by Western blotting analysis; format: functional, cell-based; settings: dose 5-20 µM
# LX-2 [14] = test: Anti-hepatic fibrosis activity against TGF-beta1 stimulated human LX2 cells assessed as reduction in Smad2 phosphorylation incubated for 48 hrs by Western blotting analysis; format: functional, cell-based; settings: dose 5-20 µM
# LX-2 [15] = test: Cytotoxicity against human LX2 cells assessed as reduction in cell viability at 2.5 to 80 uM incubated for 48 hrs by MTT assay; format: toxicity, cell-based; settings: lx-2, 48 h, dose 2.5-80 µM
# CCC-HPF-1 [16] = test: Anti-pulmonary fibrosis activity against TGF-beta1 stimulated human CCC-HPF-1 cells assessed as reduction in FN protein expression level at 5 to 20 uM incubated for 48 hrs by Western blotting analysis; format: functional, cell-based; settings: dose 5-20 µM
# LX-2 [17] = test: Anti-hepatic fibrosis activity against TGF-beta1 stimulated human LX2 cells assessed as reduction in alpha-SMA mRNA expression level at 5 to 20 uM incubated for 48 hrs by quantitative real-time PCR analysis; format: functional, cell-based; settings: dose 5-20 µM
# LX-2 [18] = test: Anti-hepatic fibrosis activity against TGF-beta1 stimulated human LX2 cells assessed as reduction in alpha-SMA protein expression level at 5 to 20 uM incubated for 48 hrs by Western blotting analysis; format: functional, cell-based; settings: dose 5-20 µM
# CCC-HPF-1 [19] = test: Anti-pulmonary fibrosis activity against TGF-beta1 stimulated human CCC-HPF-1 cells assessed as reduction in COL1A1 mRNA expression level at 5 to 20 uM incubated for 48 hrs by quantitative real-time PCR analysis; format: functional, cell-based; settings: dose 5-20 µM
# CCC-HPF-1 [20] = test: Anti-pulmonary fibrosis activity against TGF-beta1 stimulated human CCC-HPF-1 cells assessed as reduction in Smad2 phosphorylation incubated for 48 hrs by Western blotting analysis; format: functional, cell-based; settings: dose 5-20 µM
# LX-2 [21] = test: Anti-hepatic fibrosis activity against TGF-beta1 stimulated human LX2 cells assessed as inhibition of Smad2/3 nuclear translocation at 10 uM incubated for 48 hrs by DAPI staining based immunofluorescence analysis; format: functional, cell-based
# CCC-HPF-1 [22] = test: Anti-pulmonary fibrosis activity against TGF-beta1 stimulated human CCC-HPF-1 cells assessed as reduction in COL1A1 protein expression level at 5 to 20 uM incubated for 48 hrs by Western blotting analysis; format: functional, cell-based; settings: dose 5-20 µM
# LX-2 [23] = test: Anti-hepatic fibrosis activity against TGF-beta1 stimulated human LX2 cells assessed as reduction in Smad3 phosphorylation incubated for 48 hrs by Western blotting analysis; format: functional, cell-based; settings: dose 5-20 µM
# LX-2 [24] = test: Anti-hepatic fibrosis activity against TGF-beta1 stimulated human LX2 cells assessed as reduction in FN protein expression level at 5 to 20 uM incubated for 48 hrs by Western blotting analysis; format: functional, cell-based; settings: dose 5-20 µM
# CCC-HPF-1 [25] = test: Anti-migratory activity against TGF-beta1 stimulated human CCC-HPF-1 cells at 10 uM incubated for 24 hrs by light microscopic analysis; format: functional, cell-based
# LX-2 [26] = test: Effect on total Smad2 level in TGF-beta1 stimulated human LX2 cells at 5 to 20 uM incubated for 48 hrs by Western blotting analysis; format: functional, cell-based; settings: dose 5-20 µM
# LX-2 [27] = test: Anti-hepatic fibrosis activity against TGF-beta1 stimulated human LX2 cells assessed as reduction in COL1A1 mRNA expression level at 5 to 20 uM incubated for 48 hrs by quantitative real-time PCR analysis; format: functional, cell-based; settings: dose 5-20 µM
# CCC-HPF-1 [28] = test: Anti-pulmonary fibrosis activity against TGF-beta1 stimulated human CCC-HPF-1 cells assessed as reduction in FN mRNA expression level at 5 to 20 uM incubated for 48 hrs by quantitative real-time PCR analysis; format: functional, cell-based; settings: dose 5-20 µM
structure (smiles),measurement,setting,value
C[C@H](CCC(=O)N1CCc2nc(NCCc3cccc(Br)c3)ncc2C1)[C@H]1CC[C@H]2[C@@H]3[C@@H](O)C[C@@H]4C[C@H](O)CC[C@]4(C)[C@H]3CC[C@]12C,pIC50,Autotaxin [1],7.56
C[C@H](CCC(=O)N1CCc2nc(NC3Cc4ccccc4C3)ncc2C1)[C@H]1CC[C@H]2[C@@H]3[C@@H](O)C[C@@H]4C[C@H](O)CC[C@]4(C)[C@H]3CC[C@]12C,Activity,CCC-HPF-1 [2],inactive
same,Activity,LX-2 [3],Active
same,Activity,LX-2 [4],inactive
same,Activity,CCC-HPF-1 [5],Active
same,Activity,CCC-HPF-1 [6],Active
same,Ratio IC50,Autotaxin [7],9
same,Activity,CCC-HPF-1 [8],Active
same,Activity,LX-2 [9],Active
same,Activity,CCC-HPF-1 [10],Non-Toxic
same,Activity,LX-2 [11],Active
same,Activity,CCC-HPF-1 [12],Dose-Dependent Effect
same,Activity,CCC-HPF-1 [13],inactive
same,Activity,LX-2 [14],Dose-Dependent Effect
same,Activity,LX-2 [15],Non-Toxic
same,Activity,CCC-HPF-1 [16],Active
same,Activity,LX-2 [17],Active
same,Activity,LX-2 [18],Active
same,Activity,CCC-HPF-1 [19],Active
same,Activity,CCC-HPF-1 [20],Dose-Dependent Effect
same,Activity,LX-2 [21],Active
same,Activity,CCC-HPF-1 [22],Active
same,Activity,LX-2 [23],Dose-Dependent Effect
same,Activity,LX-2 [24],Active
same,Activity,CCC-HPF-1 [25],Active
same,pIC50,Autotaxin [1],8.12
same,Activity,LX-2 [26],inactive
same,Activity,LX-2 [27],Active
same,Activity,CCC-HPF-1 [28],Active
C[C@H](CCC(=O)N1CCc2nc(NCCc3cccc(F)c3)ncc2C1)[C@H]1CC[C@H]2[C@@H]3[C@@H](O)C[C@@H]4C[C@H](O)CC[C@]4(C)[C@H]3CC[C@]12C,pIC50,Autotaxin [1],7.38
C[C@H](CCC(=O)N1CCc2nc(NCCc3ccccc3Br)ncc2C1)[C@H]1CC[C@H]2[C@@H]3[C@@H](O)C[C@@H]4C[C@H](O)CC[C@]4(C)[C@H]3CC[C@]12C,pIC50,Autotaxin [1],7.03
C[C@H](CCC(=O)N1CCc2nc(NCCc3ccccc3F)ncc2C1)[C@H]1CC[C@H]2[C@@H]3[C@@H](O)C[C@@H]4C[C@H](O)CC[C@]4(C)[C@H]3CC[C@]12C,pIC50,Autotaxin [1],7.81
C[C@H](CCC(=O)N1Cc2cnc(NC3Cc4ccccc4C3)nc2C1)[C@H]1CC[C@H]2[C@@H]3[C@@H](O)C[C@@H]4C[C@H](O)CC[C@]4(C)[C@H]3CC[C@]12C,pIC50,Autotaxin [1],6.36
C[C@H](CCC(=O)N1CCc2nc(NCc3ccccc3)ncc2C1)[C@H]1CC[C@H]2[C@@H]3[C@@H](O)C[C@@H]4C[C@H](O)CC[C@]4(C)[C@H]3CC[C@]12C,pIC50,Autotaxin [1],6.47
COc1ccc(CCNc2ncc3c(n2)CCN(C(=O)CC[C@@H](C)[C@H]2CC[C@H]4[C@@H]5[C@@H](O)C[C@@H]6C[C@H](O)CC[C@]6(C)[C@H]5CC[C@]24C)C3)cc1,pIC50,Autotaxin [1],6.87
Cc1ccc(CCNc2ncc3c(n2)CCN(C(=O)CC[C@@H](C)[C@H]2CC[C@H]4[C@@H]5[C@@H](O)C[C@@H]6C[C@H](O)CC[C@]6(C)[C@H]5CC[C@]24C)C3)cc1,pIC50,Autotaxin [1],6.77
C[C@H](CCC(=O)N1CCc2nc(NCc3cc(Cl)cc(Cl)c3)ncc2C1)[C@H]1CC[C@H]2[C@@H]3[C@@H](O)C[C@@H]4C[C@H](O)CC[C@]4(C)[C@H]3CC[C@]12C,pIC50,Autotaxin [1],7.40
C[C@H](CCC(=O)N1CCc2nc(NCc3ccc(Br)cc3)ncc2C1)[C@H]1CC[C@H]2[C@@H]3[C@@H](O)C[C@@H]4C[C@H](O)CC[C@]4(C)[C@H]3CC[C@]12C,pIC50,Autotaxin [1],6.61
C[C@H](CCC(=O)N1CCc2nc(NCCc3c[nH]c4ccccc34)ncc2C1)[C@H]1CC[C@H]2[C@@H]3[C@@H](O)C[C@@H]4C[C@H](O)CC[C@]4(C)[C@H]3CC[C@]12C,pIC50,Autotaxin [1],6.47
C[C@H](CCC(=O)O)[C@H]1CC[C@H]2[C@@H]3[C@@H](O)C[C@@H]4C[C@H](O)CC[C@]4(C)[C@H]3CC[C@]12C [URSODIOL],pIC50,Autotaxin [1],5.03
C[C@H](CCC(=O)N1CCc2nc(NCCc3ccc(F)cc3)ncc2C1)[C@H]1CC[C@H]2[C@@H]3[C@@H](O)C[C@@H]4C[C@H](O)CC[C@]4(C)[C@H]3CC[C@]12C,pIC50,Autotaxin [1],7.04
C[C@H](CCC(=O)N1CCc2nc(N3CCC(c4ccccc4)CC3)ncc2C1)[C@H]1CC[C@H]2[C@@H]3[C@@H](O)C[C@@H]4C[C@H](O)CC[C@]4(C)[C@H]3CC[C@]12C,pIC50,Autotaxin [1],7.36
C[C@H](CCC(=O)N1CCc2nc(NCCc3cccc(Cl)c3)ncc2C1)[C@H]1CC[C@H]2[C@@H]3[C@@H](O)C[C@@H]4C[C@H](O)CC[C@]4(C)[C@H]3CC[C@]12C,pIC50,Autotaxin [1],6.78
C[C@H](CCC(=O)N1CCc2nc(NCCCc3ccccc3)ncc2C1)[C@H]1CC[C@H]2[C@@H]3[C@@H](O)C[C@@H]4C[C@H](O)CC[C@]4(C)[C@H]3CC[C@]12C,pIC50,Autotaxin [1],6.78
C[C@H](CCC(=O)N1CCc2nc(NC3Cc4ccc(Br)cc4C3)ncc2C1)[C@H]1CC[C@H]2[C@@H]3[C@@H](O)C[C@@H]4C[C@H](O)CC[C@]4(C)[C@H]3CC[C@]12C (some centres undefined),pIC50,Autotaxin [1],7.81
C[C@H](CCC(=O)N1CCc2nc(NCCc3ccc(Br)cc3)ncc2C1)[C@H]1CC[C@H]2[C@@H]3[C@@H](O)C[C@@H]4C[C@H](O)CC[C@]4(C)[C@H]3CC[C@]12C,pIC50,Autotaxin [1],7.33
C[C@H](CCC(=O)N1CCc2nc(NCCc3ccccc3Cl)ncc2C1)[C@H]1CC[C@H]2[C@@H]3[C@@H](O)C[C@@H]4C[C@H](O)CC[C@]4(C)[C@H]3CC[C@]12C,pIC50,Autotaxin [1],6.99
C[C@H](CCC(=O)N1CCc2nc(NCCc3ccccc3)ncc2C1)[C@H]1CC[C@H]2[C@@H]3[C@@H](O)C[C@@H]4C[C@H](O)CC[C@]4(C)[C@H]3CC[C@]12C,pIC50,Autotaxin [1],7.24
C[C@H](CCC(=O)N1CCc2nc(NCCc3ccncc3)ncc2C1)[C@H]1CC[C@H]2[C@@H]3[C@@H](O)C[C@@H]4C[C@H](O)CC[C@]4(C)[C@H]3CC[C@]12C,pIC50,Autotaxin [1],7.45
